Data published in PubChem BioAssay (NCI).
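Protocol summary: plate cells (96-well), add compound at 5 concentrations, incubate 48 h, interpolate endpoints linearly. TGI marks complete inhibition of growth.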

What was measured:
Experiment in all cases: DTP human tumour cell line panel, 48 h
786-0 renal = test system: 786-0 renal
A498 renal = test system: A498 renal
A549 NSCLC = test system: A549 NSCLC
ACHN renal = test system: ACHN renal
BT-549 breast = test system: BT-549 breast
CAKI-1 renal = test system: CAKI-1 renal
CCRF-CEM leukemia = test system: CCRF-CEM leukemia
COLO 205 colon = test system: COLO 205 colon
DU-145 prostate = test system: DU-145 prostate
EKVX NSCLC = test system: EKVX NSCLC
HCC-2998 colon = test system: HCC-2998 colon
HCT-116 colon = test system: HCT-116 colon
HCT-15 colon = test system: HCT-15 colon
HL-60(TB) leukemia = test system: HL-60(TB) leukemia
HOP-62 NSCLC = test system: HOP-62 NSCLC
HOP-92 NSCLC = test system: HOP-92 NSCLC
HS 578T breast = test system: HS 578T breast
HT29 colon = test system: HT29 colon
IGROV1 ovarian = test system: IGROV1 ovarian
K-562 leukemia = test system: K-562 leukemia
KM12 colon = test system: KM12 colon
LOX IMVI melanoma = test system: LOX IMVI melanoma
M14 melanoma = test system: M14 melanoma
MALME-3M melanoma = test system: MALME-3M melanoma
MCF7 breast = test system: MCF7 breast
MDA-MB-231 breast = test system: MDA-MB-231 breast
MDA-MB-435 = test system: MDA-MB-435
MDA-N = test system: MDA-N
MOLT-4 leukemia = test system: MOLT-4 leukemia
NCI-H226 lung = test system: NCI-H226 lung
NCI-H23 lung = test system: NCI-H23 lung
NCI-H460 lung = test system: NCI-H460 lung
NCI-H522 lung = test system: NCI-H522 lung
NCI/ADR-RES ovarian = test system: NCI/ADR-RES ovarian
OVCAR-3 ovarian = test system: OVCAR-3 ovarian
OVCAR-4 ovarian = test system: OVCAR-4 ovarian
OVCAR-5 ovarian = test system: OVCAR-5 ovarian
OVCAR-8 ovarian = test system: OVCAR-8 ovarian
PC-3 prostate = test system: PC-3 prostate
RPMI-8226 leukemia = test system: RPMI-8226 leukemia
RXF 393 renal = test system: RXF 393 renal
SF-268 CNS = test system: SF-268 CNS
SK-MEL-2 melanoma = test system: SK-MEL-2 melanoma
SK-MEL-28 melanoma = test system: SK-MEL-28 melanoma
SK-MEL-5 melanoma = test system: SK-MEL-5 melanoma
SK-OV-3 ovarian = test system: SK-OV-3 ovarian
SN12C renal = test system: SN12C renal
SNB-19 CNS = test system: SNB-19 CNS
SNB-75 CNS = test system: SNB-75 CNS
SR leukemia = test system: SR leukemia
SW-620 colon = test system: SW-620 colon
T-47D breast = test system: T-47D breast
U251 CNS = test system: U251 CNS
UACC-257 melanoma = test system: UACC-257 melanoma
UACC-62 melanoma = test system: UACC-62 melanoma
SF-539 CNS = test system: SF-539 CNS
TK-10 renal = test system: TK-10 renal
UO-31 renal = test system: UO-31 renal

C=CCc1cccc2cc(C(=O)NC3CCCCC3)c(=N)oc12
TGI (786-0 renal): 31.2 µM | TGI (A498 renal): 52 µM | TGI (A549 NSCLC): > 100 µM | TGI (ACHN renal): 35 µM | TGI (BT-549 breast): > 100 µM | TGI (CAKI-1 renal): 37.9 µM | TGI (CCRF-CEM leukemia): > 100 µM | TGI (COLO 205 colon): 33.5 µM | TGI (DU-145 prostate): 52.5 µM | TGI (EKVX NSCLC): > 100 µM | TGI (HCC-2998 colon): 31.2 µM | TGI (HCT-116 colon): 28.6 µM | TGI (HCT-15 colon): 34.9 µM | TGI (HL-60(TB) leukemia): > 100 µM | TGI (HOP-62 NSCLC): 37.7 µM | TGI (HOP-92 NSCLC): > 100 µM | TGI (HS 578T breast): 31.4 µM | TGI (HT29 colon): 57.7 µM | TGI (IGROV1 ovarian): > 100 µM | TGI (K-562 leukemia): > 100 µM | TGI (KM12 colon): 33 µM | TGI (LOX IMVI melanoma): 34 µM | TGI (M14 melanoma): 39.1 µM | TGI (MALME-3M melanoma): > 100 µM | TGI (MCF7 breast): > 100 µM | TGI (MDA-MB-231 breast): 35.9 µM | TGI (MDA-MB-435): 77.5 µM | TGI (MDA-N): 47.3 µM | TGI (MOLT-4 leukemia): > 100 µM | TGI (NCI-H226 lung): 44.9 µM | TGI (NCI-H23 lung): 51.8 µM | TGI (NCI-H460 lung): 35.9 µM | TGI (NCI-H522 lung): > 100 µM | TGI (NCI/ADR-RES ovarian): > 100 µM | TGI (OVCAR-3 ovarian): 28.3 µM | TGI (OVCAR-4 ovarian): 63.1 µM | TGI (OVCAR-5 ovarian): 39 µM | TGI (OVCAR-8 ovarian): 57.8 µM | TGI (PC-3 prostate): 31.2 µM | TGI (RPMI-8226 leukemia): > 100 µM | TGI (RXF 393 renal): > 100 µM | TGI (SF-268 CNS): 41.2 µM | TGI (SK-MEL-2 melanoma): 16.1 µM | TGI (SK-MEL-28 melanoma): 66.2 µM | TGI (SK-MEL-5 melanoma): 27.4 µM | TGI (SK-OV-3 ovarian): > 100 µM | TGI (SN12C renal): 29.8 µM | TGI (SNB-19 CNS): 72.8 µM | TGI (SNB-75 CNS): 35 µM | TGI (SR leukemia): > 100 µM | TGI (SW-620 colon): > 100 µM | TGI (T-47D breast): 52.8 µM | TGI (U251 CNS): > 100 µM | TGI (UACC-257 melanoma): 78 µM | TGI (UACC-62 melanoma): 41.2 µM

O=C1C(Cl)C2(CC(/C=C/c3cccs3)=NN2c2cccc(S(=O)(=O)O)c2)N1c1nc2ccccc2s1 (stereo not given)
TGI (786-0 renal): > 100 µM | TGI (A498 renal): > 100 µM | TGI (A549 NSCLC): > 100 µM | TGI (ACHN renal): > 100 µM | TGI (BT-549 breast): > 100 µM | TGI (CAKI-1 renal): > 100 µM | TGI (CCRF-CEM leukemia): 78.2 µM | TGI (COLO 205 colon): > 100 µM | TGI (DU-145 prostate): > 100 µM | TGI (EKVX NSCLC): > 100 µM | TGI (HCC-2998 colon): > 100 µM | TGI (HCT-116 colon): > 100 µM | TGI (HCT-15 colon): > 100 µM | TGI (HL-60(TB) leukemia): > 100 µM | TGI (HOP-92 NSCLC): > 100 µM | TGI (HS 578T breast): > 100 µM | TGI (HT29 colon): > 100 µM | TGI (IGROV1 ovarian): > 100 µM | TGI (K-562 leukemia): > 100 µM | TGI (KM12 colon): > 100 µM | TGI (LOX IMVI melanoma): > 100 µM | TGI (M14 melanoma): > 100 µM | TGI (MALME-3M melanoma): > 100 µM | TGI (MCF7 breast): > 100 µM | TGI (MDA-MB-231 breast): > 100 µM | TGI (MDA-MB-435): > 100 µM | TGI (MDA-N): > 100 µM | TGI (MOLT-4 leukemia): > 100 µM | TGI (NCI-H226 lung): > 100 µM | TGI (NCI-H23 lung): > 100 µM | TGI (NCI-H460 lung): > 100 µM | TGI (NCI-H522 lung): 38.5 µM | TGI (NCI/ADR-RES ovarian): > 100 µM | TGI (OVCAR-4 ovarian): > 100 µM | TGI (OVCAR-5 ovarian): > 100 µM | TGI (OVCAR-8 ovarian): > 100 µM | TGI (PC-3 prostate): > 100 µM | TGI (RPMI-8226 leukemia): > 100 µM | TGI (RXF 393 renal): > 100 µM | TGI (SF-268 CNS): > 100 µM | TGI (SF-539 CNS): > 100 µM | TGI (SK-MEL-2 melanoma): > 100 µM | TGI (SK-MEL-28 melanoma): > 100 µM | TGI (SK-MEL-5 melanoma): > 100 µM | TGI (SN12C renal): > 100 µM | TGI (SNB-19 CNS): > 100 µM | TGI (SNB-75 CNS): > 100 µM | TGI (SR leukemia): > 100 µM | TGI (SW-620 colon): > 100 µM | TGI (T-47D breast): > 100 µM | TGI (TK-10 renal): > 100 µM | TGI (U251 CNS): > 100 µM | TGI (UACC-257 melanoma): > 100 µM | TGI (UACC-62 melanoma): > 100 µM | TGI (UO-31 renal): 23.8 µM
